Assay results reported in patent publication US7635779B2, “Oxy substituted flavones as antihyperglycemic and antidyslipidemic agents” (Council of Scientific & Industrial Research, priority 2004, dated 2009).

Key:
Assay type in all cases: in vivo, mouse
[1] = test system: Swiss mice; assay: Gross behaviour: autonomic responses; settings: 100 mg/kg p.o.
Protocol: 34 and 49 (100 mg/kg, p.o.) was administered in forenoon. […] Piloerection: Erection of body hairs (+: present or −: absent). • ii). Salivation: Secretion of saliva is observed as dripping of saliva from mouth, which is scored as 1=mild, 2=moderate and 3=severe as compared to control (0=no dripping). • iii). Lachrymation: Secretion and discharge of tears observed as shedding of tears around the lower eyelid, which is scored as 1=mild, 2=moderate and 3=severe as compared to control (0=no shedding). • iv). Palpebral closure: Ptosis (drooping of upper eyelids) present or absent • v). Exopthalmos: Protrusion (bulging) of eye ball; present or absent • vi). Defaecation: scored as 1=mild, 2=moderate and 3=severe as compared to control • vii). Urination: scored as 1=mild, 2=moderate and 3=severe as compared to control Results

[2] = test system: Swiss mice; assay: Gross behaviour: sensory responses (reflexes, hot plate nociceptive response); settings: 100 mg/kg p.o.; for Nociceptive reaction time MEAN ± SE: hot plate 55° C.
Protocol: • i). Reflexes: Pinna, corneal and righting reflexes were tested [Normal (control), sluggish or absent] • ii). Nociceptive Response: Reaction time to nociceptive response was observed by hot plate analgesia meter (Columbus Instruments,USA). The cut-off period for thermal nociception (55° C.) to mice was 15 sec. Results • i). Reflexes: Corneal, pinna and righting reflexes were intact in 34 and 49 treated mice. • ii).

[3] = test system: Swiss mice; assay: Barbiturate induced hypnosis (sleeping time); settings: for Change in barbiturate induced hypnosis: 100 mg/kg p.o.; for Sleep-duration (MEAN ± SE): 100 mg/kg p.o. 30 min prior to Pentobarbitone 45 mg/kg i.p.
Protocol: Sleeping time is calculated by the duration between loss and regain of righting reflex following administration of Pentobarbitone (45 mg/kg, i.p.). 34 and 49 in the dose 100 mg/kg, p.o. was administered 30 min prior to Pentobarbitone.

[4] = test system: Swiss mice; assay: Neuromuscular coordination (muscle tone, rota rod test); parameters: key to Muscle tone score (hind limb rigidity): 0=Flaccid; 1=Normal; 2=Rigid; settings: for Effect on neuromuscular coordination as compared to control / Rota rod test-numbers of falls / Rota rod test-stay period at 1 h (MEAN ± SE): 100 mg/kg p.o.; for Rota rod test-stay period at 1 h (MEAN ± SE): test duration 2 min; for Muscle tone score (hind limb rigidity): resistance to passive flexion of hind-paw
Protocol: By resistance to passive flexion of each hind-paw
Score: 0=Flaccid, 1=Normal, 2=Rigid, • ii). Rota Rod Test
The period of stay on rotating rod (speed: 5 rotations/min; total duration of test 2 min) for each control and treated mice (−60 min) was recorded by Rotamex 4 (Columbus Instr., USA). The mice were trained to stay for period of 2 min on rotating rod and only trained mice were included in the study.

Structure (SMILES)	Effect on autonomic responses [1]	Corneal, pinna and righting reflexes [2]	Effect on nociceptive reaction time as compared to control [2]	Sensory responses [2]	Nociceptive reaction time MEAN ± SE ([2]; 30 min) [s]	Nociceptive reaction time MEAN ± SE ([2]; 60 min) [s]	Nociceptive reaction time MEAN ± SE ([2]; 90 min) [s]	Nociceptive reaction time MEAN ± SE ([2]; 120 min) [s]	Nociceptive reaction time MEAN ± SE ([2]; Pre-tt (0)) [s]	Change in barbiturate induced hypnosis [3]	Sleep-duration (MEAN ± SE) [3] [min]	Effect on neuromuscular coordination as compared to control [4]	Rota rod test-numbers of falls ([4]; 30 min)	Rota rod test-numbers of falls ([4]; 60 min)	Rota rod test-stay period at 1 h (MEAN ± SE) [4] [s]	Rota rod test-numbers of falls ([4]; 90 min)	Rota rod test-numbers of falls ([4]; 180 min)	Rota rod test-numbers of falls ([4]; Pre-tt (0))	Muscle tone score (hind limb rigidity) [4]
CC(C)NCC(O)COc1ccc2c(=O)cc(-c3cc(O)cc(O)c3)oc2c1 (centres unmarked) [Compound 49, 3′,5′-Dihydroxy-7-(2-hydroxy-3-iso-propylamino-propoxy)-flavone]	did not show any significant effect	intact	no significant effect	not affected	4.66 ± 0.6	4.10 ± 0.2	3.66 ± 0.3	3.45 ± 0.1	4.61 ± 0.2	did not show any significant change	103.4 ± 15.27	did not show any significant effect	0	1/8	112.25 ± 7.75	0	0	0	1
CC(C)(C)NCC(O)COc1ccc2c(=O)cc(-c3cc(OCc4ccccc4)cc(OCc4ccccc4)c3)oc2c1 (centres unmarked) [Compound 34, 7-(3-tert-Butylamino-2-hydroxy-propoxy)-3′,5′-dibenzyloxy-flavone]	did not show any significant effect	intact	no significant effect	not affected	4.84 ± 0.3	4.30 ± 0.2	3.52 ± 0.1	3.08 ± 0.2	3.52 ± 0.2	did not show any significant change	122.5 ± 16.7	did not show any significant effect	0	1/8	111.87 ± 8.82	0	0	0	1
